For data set [1], the system named is BxPC-3 xenograft tumors. As to the kind of experiment: BxPC-3 cell xenograft tumor model. Conditions: nude mice. Type of data set: in vivo, athymic nude mice. As for the experimental part:
Six-week-old female athymic nude mice were purchased from Envigo (Jerusalem, Israel) and housed in pathogen-free conditions and fed a standard sterilized diet. The mice were housed in humidity- and temperature-controlled conditions, and the light/dark cycle was set at 12 h intervals. The animal protocol was reviewed and approved by the Committee for the Ethical Care and Use of Animals in Research at Ben-Gurion University of the Negev, complying with the Israeli Animal Welfare Law. BxPC-3 cells (4×10^6) were injected subcutaneously into one flank of the mice. Tumor size was measured every other day based on caliper measurements of tumor length and width (volume=tumor length×width^2×0.5236). Ten days later, when tumors were palpable and reached volumes of 50-150 mm^3, the mice bearing tumors were randomly assigned to control or eravacycline groups (n=6). Treatment was administered every two days using either phosphate buffered saline (PBS), eravacycline (10 mg/kg by i.p. injection) or gemcitabine (25 mg/kg by i.p. injection) for 10 days. The tumor growth and mouse weight were measured every other day during the treatment period. After the last treatment, the mice were monitored for an additional six days, and then the experiment was terminated. The mice were then sacrificed, the tumors were excised, photographed, and measured, and the tumor tissues were snap-frozen, pending analysis.
To further assess the inhibition effect of eravacycline on human PDAC cells in vivo, BxPC-3 cells were injected subcutaneously into nude mice to establish xenograft models for in vivo experiments. The mice were randomly divided into three groups: the control group, the gemcitabine group (25 mg/kg), and the eravacycline group (10 mg/kg). Following the last administration of treatment, mice were monitored for an additional six days; then the experiment was terminated, the mice were sacrificed, and the tumors were excised, photographed, and weighed (FIGS. 6B-6D).

Data set [2] has as its system A549 cells. As to the kind of experiment: XTT cell proliferation assay, A549. Conditions: A549, 72 h, 1-50 μM. In kind it is cell-based, human. On the procedure:
(§1) Human PDAC (AsPC-1, BxPC-3, Panc-1 scr, Panc-1 p53-R273H knock-out (KO) hTERT-HPNE), breast (MCF-7), lung (A549), and colon (HT-29) cancer cell lines were purchased from the American Type Culture Collection (ATCC). The MCF-7, A549, Panc-1 scr, Panc-1 p53 KO and HT-29 cell lines were grown in Dulbecco's Modified Eagle Medium (DMEM; Biological Industries, Beit HaEmek (BI), Israel), and the BxPC-3 and AsPC-1 cell lines were cultured in Roswell Park Memorial Institute-1640 (RPMI-1640; BI, Israel) medium. All media was supplemented with 10% fetal bovine serum (FBS), 200 μM L-glutamine (BI), and 1% penicillin-streptomycin (BI). Cells were cultured at 37° C. in a 5% CO2 humidified incubator.
(§2) Eravacycline dihydrochloride (MedChem Express (MCE)) was dissolved in […] (DDW). Tigecycline (MCE) and omadacycline (MCE) were dissolved in dimethyl sulphoxide (DMSO). All drugs were prepared as 100 mM stock solutions. All cell lines were treated with DMSO as a control (less than 0.1%) or tigecycline, omadacycline, or eravacycline (at the indicated concentrations) for 72 hours. Cell viability and proliferation were determined using the XTT Cell Proliferation Assay Kit (Promega).
The XTT Cell Proliferation Assay Kit was used to determine cell viability and proliferation. Cells were seeded in 96-well plates at a density of 4,000 cells per well and allowed to attach overnight in a 5% CO2 incubator at 37° C. […] After shaking the plate gently to distribute the dye in the wells, the absorbance was measured with a spectrophotometer (Bio-RadiMark Microplate Absorbance reader) at a wavelength of 450 nm and a reference wavelength of 655 nm.
To evaluate the half maximal inhibitory concentration (IC50) of tetracycline derivatives on five different cell lines (MCF-7, A549, HT-29, BxPC-3, and AsPC-1), the cells were seeded and allowed to attach overnight. […] Inhibition of cell proliferation was determined using the XTT Cell Proliferation Assay Kit. […]

In data set [3] the test system is BxPC-3 cells. As to the kind of experiment: XTT cell proliferation assay, BxPC-3. Type of data set: cell-based, human. On the procedure: as §1, §2
The XTT Cell Proliferation Assay Kit was used to determine cell viability and proliferation. Cells were seeded in 96-well plates at a density of 4,000 cells per well and allowed to attach overnight in a 5% CO2 incubator at 37° C. After overnight incubation, cells were treated with culture medium or in a medium containing tigecycline, omadacycline, or eravacycline at different concentrations (1, 2, 5, 10, 25, and 50 μM) for the indicated time period. Then, 50 μl XTT reaction solution (0.1 ml activation solution+5 ml XTT reagent solution) was added to each well, and the plate was incubated at 37° C. for two hours. After shaking the plate gently to distribute the dye in the wells, the absorbance was measured with a spectrophotometer (Bio-RadiMark Microplate Absorbance reader) at a wavelength of 450 nm and a reference wavelength of 655 nm.
To evaluate the half maximal inhibitory concentration (IC50) of tetracycline derivatives on five different cell lines (MCF-7, A549, HT-29, BxPC-3, and AsPC-1), the cells were seeded and allowed to attach overnight. All cells were washed with phosphate buffered saline (PBS) and then cultured in fresh media containing the drugs tigecycline, omadacycline, or eravacycline at an increasing concentration (0-50 μM) for 72 h. Inhibition of cell proliferation was determined using the XTT Cell Proliferation Assay Kit.
To investigate the effect of tetracycline derivatives on cell proliferation in human breast, lung, colon, and PDAC cells, the inventors treated all cell lines (MCF-7, A549, HT-29, BxPC-3, and AsPC-1) with different concentrations of tigecycline, omadacycline, and eravacycline (1, 2, 5, 10, 25, and 50 μM), with medium used as a control, for 72 h. Then, an XTT assay was performed to determine the growth inhibition rate.
(Formazan colour is commonly taken as a measure of viable cells.)

The subject of data set [4] is BxPC-3 cells. As to the kind of experiment: Annexin V-FITC/PI apoptosis assay by flow cytometry. Type of data set: cell-based, human. Conditions: 72 h. As for the experimental part: Cells were cultured in 6-well plates containing different concentrations of eravacycline, gemcitabine, or doxorubicin (medium alone was used as a control) for 72 h. Afterward, cells were collected by trypsinization for flow cytometry analysis. Cells were resuspended in 100 μl binding buffer, then stained with 5 μl propidium iodide (PI) and 5 μl Annexin V-FITC (Annexin V-FITC Apoptosis Detection Kit with PI-BioLegend) at room temperature for 20 min in the dark. Finally, the cells were collected and analyzed by FACS (Sony SP6800 Spectral cell analyzer), and the data was analyzed using SP6800 spectral analyzer software.
To examine eravacycline's effect on cell growth inhibition and the mechanism underlying this, the induction of apoptosis activated by eravacycline treatment in BxPC-3 cells was investigated by performing an Annexin V-FITC (V-fluorescein isothiocyanate) apoptosis assay. The effects of the treatment of BxPC-3 cells with increasing concentrations of eravacycline was evaluated after 72 h. A positive control of 1 μM of doxorubicin was evaluated at the same time point.
In general terms: A flow cytometer gives signals particle by particle.

Where [5] appears, read: 10 mg/kg i.p. every two days for 10 days.

`CN(C)[C@@H]1C(O)=C(C(N)=O)C(=O)[C@@]2(O)C(O)=C3C(=O)c4c(O)c(NC(=O)CN5CCCC5)cc(F)c4C[C@H]3C[C@@H]12` [eravacycline, (4S,4aS,5aR,12aS)-4-(Dimethylamino)-7-fluoro-3,10,12,12a-tetrahydroxy-1,11-dioxo-9-[2-(pyrrolidin-1-yl)acetamido]-1,4,4a,5,5a,6,11,12a-octahydrotetracene-2-carboxamide]: the “mouse weight loss vs control group” value in data set [1] (setting [5]) is reported as “no significant weight loss”. Further, in data set [1] (setting [5]), the tumor growth blocked was found to be 76%. Besides, in data set [1] (10 mg/kg i.p.), the “tumor volume and tumor weight compared with gemcitabine (25 mg/kg)” value is “superior to gemcitabine treatment”. The “effect on cell survival / proliferation (in words)” value in data set [2] was “No significant effect”. Moreover, the “decrease in cell growth” value in data set [3] (BxPC-3, 1 μM, 72 h) amounted to 27%; in data set [3] (BxPC-3, 10 μM, 72 h), 63%; in data set [3] (BxPC-3, 50 μM, 72 h), 93%. The “effect on cell survival / viability (in words)” value in data set [3] (BxPC-3, 72 h, 1-50 μM) is “strong and selective viability reduction”. Moreover, in data set [3] (BxPC-3, 72 h, concentration-dependent, 1-50 μM), the “suppression of proliferation, up to” value was 90-93%. In addition, the cytotoxicity at 25 µM in data set [3] (Homo sapiens, BXPC-3, 72 h, read-out: decrease in cell growth / viability, BxPC-3, 25 μM, 72 h) turned out to be 93%. Moreover, the IC50 in data set [3] (Homo sapiens, BxPC-3, 72 h, XTT, read-out: IC50, inhibition of cell proliferation) stood at 3.57 µM. Further, the “decrease in cell growth / viability” value in data set [3] (human, 72 h, 25 μM) is recorded as 90%. For the same compound, in data set [4] (BxPC-3, 10 μM), the “increase in the number of apoptotic cells” value is “three-fold”. The same compound came in with an apoptosis in data set [4] (BxPC-3, 25 μM) of approximately 70%.

Source of the values: US20250325565A1, “ERAVACYCLINE FOR TREATING CANCER” (B. G. NEGEV TECHNOLOGIES AND APPLICATIONS LTD., priority 2022, published 2025).
